Read-outs that look alike come from different tables or passages of the source.
Experiments:
drIndy = drIndy (Drosophila melanogaster, UniProt Q9VVT2)
ceNaCT = target: T1, ceNaCT (Caenorhabditis elegans, UniProt P32739, I91S/L182M); assay: Uptake via ceNaCT expressed in HRPE cells
T1 sequence (P32739 1-551 I91S/L182M): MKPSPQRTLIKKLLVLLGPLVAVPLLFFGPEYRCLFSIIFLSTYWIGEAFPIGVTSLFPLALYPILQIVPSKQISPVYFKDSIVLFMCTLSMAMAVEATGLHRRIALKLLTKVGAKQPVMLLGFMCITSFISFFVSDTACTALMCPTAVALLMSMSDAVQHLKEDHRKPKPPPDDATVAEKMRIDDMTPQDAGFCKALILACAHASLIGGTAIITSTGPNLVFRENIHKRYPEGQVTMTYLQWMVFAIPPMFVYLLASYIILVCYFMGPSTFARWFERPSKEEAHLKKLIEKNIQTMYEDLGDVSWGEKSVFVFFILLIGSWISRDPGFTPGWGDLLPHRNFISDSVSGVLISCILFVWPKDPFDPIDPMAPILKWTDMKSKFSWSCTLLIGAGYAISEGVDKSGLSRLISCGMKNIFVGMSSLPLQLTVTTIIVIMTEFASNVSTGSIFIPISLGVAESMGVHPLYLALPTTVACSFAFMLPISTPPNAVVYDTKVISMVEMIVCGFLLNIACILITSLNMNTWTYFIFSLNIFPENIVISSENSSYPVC

human NaCT = human NaCT (Homo sapiens, UniProt Q86YT5); assay: Uptake via human NaCT expressed in HRPE cells; assay type: cell-based; conditions: for Citrate Uptake, cDNA / Citrate Uptake, cDNA-specific: pH 7.5
mouse NaCT = target: T2, mouse NaCT (Mus musculus, UniProt Q67BT3); assay: Transport via mouse NaCT expressed in HRPE cells; assay type: cell-based
T2 sequence (Q67BT3 1-572): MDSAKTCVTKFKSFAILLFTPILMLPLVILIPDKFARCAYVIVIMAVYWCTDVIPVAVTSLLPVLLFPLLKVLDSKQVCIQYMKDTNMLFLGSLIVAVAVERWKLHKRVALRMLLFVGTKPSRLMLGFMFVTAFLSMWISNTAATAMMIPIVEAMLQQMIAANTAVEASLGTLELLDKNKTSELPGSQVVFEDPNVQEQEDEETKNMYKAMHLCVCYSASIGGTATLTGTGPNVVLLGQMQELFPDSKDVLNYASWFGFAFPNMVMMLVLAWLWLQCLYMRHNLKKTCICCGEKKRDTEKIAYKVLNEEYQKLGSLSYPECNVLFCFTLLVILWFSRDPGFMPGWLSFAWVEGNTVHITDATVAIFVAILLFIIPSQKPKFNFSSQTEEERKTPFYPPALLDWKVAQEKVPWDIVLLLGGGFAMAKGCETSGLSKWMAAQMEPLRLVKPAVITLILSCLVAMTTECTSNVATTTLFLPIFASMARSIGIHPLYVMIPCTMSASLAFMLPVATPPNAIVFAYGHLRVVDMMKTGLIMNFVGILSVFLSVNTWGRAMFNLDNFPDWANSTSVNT

rat NaCT = target: T3, rat NaCT (Rattus norvegicus, UniProt Q8CJ44); assay: Uptake via rat NaCT expressed in HRPE cells; assay type: cell-based; conditions: for Citrate Uptake, cDNA / Citrate Uptake, cDNA-specific: pH 7.5
T3 sequence (Q8CJ44 1-572): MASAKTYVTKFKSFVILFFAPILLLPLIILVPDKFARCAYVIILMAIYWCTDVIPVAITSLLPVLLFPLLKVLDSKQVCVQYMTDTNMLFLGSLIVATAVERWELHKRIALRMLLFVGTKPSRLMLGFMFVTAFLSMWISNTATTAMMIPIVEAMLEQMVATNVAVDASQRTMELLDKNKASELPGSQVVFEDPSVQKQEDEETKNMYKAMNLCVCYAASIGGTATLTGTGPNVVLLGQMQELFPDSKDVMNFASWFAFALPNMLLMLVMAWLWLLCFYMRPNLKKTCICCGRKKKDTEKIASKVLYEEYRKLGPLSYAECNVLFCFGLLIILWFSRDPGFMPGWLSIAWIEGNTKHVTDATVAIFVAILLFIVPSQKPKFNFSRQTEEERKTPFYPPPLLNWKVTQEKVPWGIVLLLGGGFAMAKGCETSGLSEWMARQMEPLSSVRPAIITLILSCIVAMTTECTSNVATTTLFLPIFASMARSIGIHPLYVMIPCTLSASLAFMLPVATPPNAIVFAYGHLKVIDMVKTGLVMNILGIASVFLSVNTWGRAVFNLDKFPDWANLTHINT

[1] = [3H]succinate 40 nM, inhibitor 2.5 mM
[2] = [3H]succinate 40 nM, inhibitor 2.5 mM, NaCl buffer pH 7.5
[3] = citrate 35 μM, drIndy cDNA-transfected HRPE cells, indicated salt
[4] = [14C]citrate 7 μM, indicated salt
[5] = [14C]citrate 7 μM, rat NaCT cDNA-transfected HRPE, indicated salt
[6] = relative to NaCl, [14C]citrate 7 μM

Chain of human NaCT (Q86YT5 whole entry): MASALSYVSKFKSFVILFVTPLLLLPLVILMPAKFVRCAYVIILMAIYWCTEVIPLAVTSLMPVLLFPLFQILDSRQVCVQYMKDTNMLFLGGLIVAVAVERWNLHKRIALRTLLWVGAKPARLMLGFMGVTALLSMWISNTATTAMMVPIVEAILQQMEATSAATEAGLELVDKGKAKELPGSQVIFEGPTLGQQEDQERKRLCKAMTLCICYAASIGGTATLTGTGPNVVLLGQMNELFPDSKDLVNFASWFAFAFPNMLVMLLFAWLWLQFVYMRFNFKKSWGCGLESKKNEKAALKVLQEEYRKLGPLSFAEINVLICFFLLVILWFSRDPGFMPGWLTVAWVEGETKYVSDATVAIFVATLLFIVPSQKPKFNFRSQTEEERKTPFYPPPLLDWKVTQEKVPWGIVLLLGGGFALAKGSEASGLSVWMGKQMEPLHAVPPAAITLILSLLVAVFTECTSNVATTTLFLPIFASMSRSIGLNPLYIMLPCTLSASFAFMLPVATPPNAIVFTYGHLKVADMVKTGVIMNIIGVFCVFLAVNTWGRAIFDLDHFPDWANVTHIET
Chain of drIndy (Q9VVT2 19-590): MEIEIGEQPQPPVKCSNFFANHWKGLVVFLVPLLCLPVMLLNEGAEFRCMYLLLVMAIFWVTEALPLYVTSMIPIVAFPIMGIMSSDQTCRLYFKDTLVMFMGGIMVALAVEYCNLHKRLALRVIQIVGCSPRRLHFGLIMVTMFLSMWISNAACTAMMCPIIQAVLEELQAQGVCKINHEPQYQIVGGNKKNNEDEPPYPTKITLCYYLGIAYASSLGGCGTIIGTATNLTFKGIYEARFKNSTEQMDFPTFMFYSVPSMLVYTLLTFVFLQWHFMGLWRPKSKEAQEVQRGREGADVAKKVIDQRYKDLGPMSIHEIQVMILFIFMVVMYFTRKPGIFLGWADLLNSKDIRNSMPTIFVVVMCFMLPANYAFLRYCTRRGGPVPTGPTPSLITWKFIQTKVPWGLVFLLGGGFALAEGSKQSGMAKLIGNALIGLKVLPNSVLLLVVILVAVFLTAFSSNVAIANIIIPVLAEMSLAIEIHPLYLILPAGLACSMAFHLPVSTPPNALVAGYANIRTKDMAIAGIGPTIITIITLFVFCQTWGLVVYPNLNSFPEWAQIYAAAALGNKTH

O=C(O)CCC(=O)C(=O)O [2-Oxoglutarate]
% Control of cDNA-specific [^3H]succinate uptake (drIndy): 5%
cDNA-specific [^3H] succinate uptake (drIndy; pH 7.5): 3.0 ± 1.0 fmol/106 cells per min
Competition with [^14C]citrate for ceNaCT-mediated uptake (ceNaCT): inhibited markedly

COC(=O)CCC(=O)OC [Dimethylsuccinate]
% Control of cDNA-specific [^3H]succinate uptake (drIndy; [1]): 13%
cDNA-specific [^3H] succinate uptake (drIndy; [2]): 14.1 ± 0.8 fmol/106 cells per min

O=C(O)/C=C/C(=O)O [Fumarate]
[^14C]-Citrate Uptake (cDNA-specific) (human NaCT): 43.7 ± 5.0 pmol/10^6 cells/min
[^14C]-Citrate Uptake, % (human NaCT): 92%
IC50 (human NaCT; read-out: IC50 for inhibition of human NaCT-mediated [^14C]-citrate uptake): 12.6 ± 5 mM
% Control of cDNA-specific [^3H]succinate uptake (drIndy): 6%
cDNA-specific [^3H] succinate uptake (drIndy; pH 7.5): 4.8 ± 0.3 fmol/106 cells per min
[^3H]-Succinate transport (NaCT-specific) (mouse NaCT): 0.007 ± 0.002 pmol/10^6 cells/min
[^3H]-Succinate transport, % (mouse NaCT): 5%
[^14C]-Citrate transport (NaCT-specific) (mouse NaCT): 1.6 ± 0.4 pmol/10^6 cells/min
[^14C]-Citrate transport, % (mouse NaCT): 4%
Competition with [^14C]citrate for ceNaCT-mediated uptake (ceNaCT): inhibited markedly
[^14C]Citrate uptake (cDNA-specific) (rat NaCT): 17.7 ± 1.4 Pmol/10^6 cells/min
[^14C]Citrate uptake, % (rat NaCT): 16%

[Cl-].[K+] [KCl]
Citrate Uptake, cDNA-specific, % (human NaCT): 0%
Citrate Uptake, cDNA (human NaCT): 1.1 ± 0.1 pmol/10^6 cells/min
Citrate Uptake, cDNA-specific (human NaCT): −0.1 ± 0.1^ pmol/10^6 cells/min
Citrate uptake, drIndy (drIndy): 33.8 ± 2.7 pmol/10^6 cells per min
Fold Increase of citrate uptake (drIndy vs vector) (drIndy): 19.9 fold
Succinate uptake, drIndy (drIndy; pH 7.5): 111.0 ± 8.5 fmol/10^6 cells per min
Citrate Uptake, cDNA-specific, % (rat NaCT): 0%
Citrate Uptake, cDNA (rat NaCT): 0.6 ± 0.1 pmol/10^6 cells/min
Citrate Uptake, cDNA-specific (rat NaCT): 0.1 ± 0.1 pmol/10^6 cells/min

[Cl-].[Li+] [LiCl]
Citrate Uptake, cDNA (human NaCT; [14C]-citrate 20 μM, human NaCT cDNA-transfected HRPE, indicated salt): 2.0 ± 0.1 pmol/10^6 cells/min
Citrate Uptake, cDNA-specific (human NaCT; [14C]-citrate 20 μM, indicated salt): 0.7 ± 0.1 pmol/10^6 cells/min
Citrate Uptake, cDNA-specific, % (human NaCT; relative to NaCl): 1%
Citrate uptake, drIndy (drIndy; [3]): 52.1 ± 2.2 pmol/10^6 cells per min
Fold Increase of citrate uptake (drIndy vs vector) (drIndy; citrate 35 μM, indicated salt): 27.4 fold
Citrate Uptake, cDNA-specific (rat NaCT; [4]): 1.1 ± 0.1 pmol/10^6 cells/min
Citrate Uptake, cDNA (rat NaCT; [5]): 1.6 ± 0.1 pmol/10^6 cells/min
Citrate Uptake, cDNA-specific, % (rat NaCT; [6]): 3%

O=C(O)CC(O)C(=O)O (centres unmarked) [Malate, malate]
IC50 (human NaCT): 3.12 ± 1.34 mM
[^14C]-Citrate Uptake (cDNA-specific) (human NaCT; [14C]-citrate 20 μM, unlabeled compound 2.5 mM): 29.5 ± 1.9 pmol/10^6 cells/min
[^14C]-Citrate Uptake, % (human NaCT; [14C]-citrate 20 μM, unlabeled compound 2.5 mM, none = 100): 62%
% Control of cDNA-specific [^3H]succinate uptake (drIndy; [1]): 8%
cDNA-specific [^3H] succinate uptake (drIndy; [2]): 6.8 ± 2.7 fmol/106 cells per min
[^3H]-Succinate transport (NaCT-specific) (mouse NaCT; [3H]-succinate 0.1 μM, substrate analog 2 mM): 0.004 ± 0.001 pmol/10^6 cells/min
[^3H]-Succinate transport, % (mouse NaCT; [3H]-succinate 0.1 μM, substrate analog 2 mM, control = 100): 3%
[^14C]-Citrate transport (NaCT-specific) (mouse NaCT; [14C]-citrate 10 μM, substrate analog 2 mM): 0.2 ± 0.1 pmol/10^6 cells/min
[^14C]-Citrate transport, % (mouse NaCT; [14C]-citrate 10 μM, substrate analog 2 mM, control = 100): 1%
Competition with [^14C]citrate for ceNaCT-mediated uptake (ceNaCT; competitor 2.5 mM, [14C]citrate 15 μM): inhibited markedly
[^14C]Citrate uptake (cDNA-specific) (rat NaCT; [14C]citrate 14 μM, unlabeled compound 2.5 mM): 7.8 ± 0.1 Pmol/10^6 cells/min
[^14C]Citrate uptake, % (rat NaCT; [14C]citrate 14 μM, unlabeled compound 2.5 mM, none = 100): 7%

O=C(O)CC(=O)O [Malonate, malonate]
[^14C]-Citrate Uptake (cDNA-specific) (human NaCT): 57.3 ± 3.2 pmol/10^6 cells/min
[^14C]-Citrate Uptake, % (human NaCT): 120%
% Control of cDNA-specific [^3H]succinate uptake (drIndy): 71%
cDNA-specific [^3H] succinate uptake (drIndy; pH 7.5): 98.8 ± 7.1 fmol/106 cells per min
Competition with [^14C]citrate for ceNaCT-mediated uptake (ceNaCT): failed to inhibit the uptake of citrate

OC[C@@H](O)[C@@H](O)[C@H](O)[C@H](O)CO [Mannitol]
Citrate uptake, drIndy (drIndy; [3]): 26.3 ± 0.3 pmol/10^6 cells per min
Fold Increase of citrate uptake (drIndy vs vector) (drIndy; citrate 35 μM, indicated salt): 15.5 fold
Citrate Uptake, cDNA-specific (rat NaCT; [4]): 0.1 ± 0.1 pmol/10^6 cells/min
Citrate Uptake, cDNA (rat NaCT; [5]): 0.7 ± 0.1 pmol/10^6 cells/min
Citrate Uptake, cDNA-specific, % (rat NaCT; [6]): 0%

Reference: patent publication US20050095240A1, “NaCT as a target for lifespan expansion and weight reduction” (Medical College of Georgia Research, priority 2002, published 2005)
